According to ChEMBL document CHEMBL1201862, “PubChem BioAssay data set” (2004):
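Method: 48-hour compound exposure of cells in 96-well plates, five concentrations, linear interpolation of endpoints. Here, GI50 denotes the concentration required for 50% inhibition of growth.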 Activity calls are given as the source filed them. Cut-off read from the data, not from the text of the source: active = GI50 up to about 1.1 µM and inactive = higher.

What was measured:
Assay in all cases: inhibition of tumour cell growth, NCI panel, 48 h
SK-MEL-2 = tested on: SK-MEL-2
HOP-18 = tested on: HOP-18
M19-MEL = tested on: M19-MEL
786-0 = tested on: 786-0
NCI-H226 = tested on: NCI-H226
Malme-3M = tested on: Malme-3M
SNB-78 = tested on: SNB-78
HT-29 = tested on: HT-29
CCRF-CEM = tested on: CCRF-CEM
SNB-19 = tested on: SNB-19
EKVX = tested on: EKVX
OVCAR-4 = tested on: OVCAR-4
SF-539 = tested on: SF-539
DMS-114 = tested on: DMS-114
SK-MEL-5 = tested on: SK-MEL-5
UACC-62 = tested on: UACC-62
LOX IMVI = tested on: LOX IMVI
ACHN = tested on: ACHN
LXFL 529 = tested on: LXFL 529
KM-20L2 = tested on: KM-20L2
SK-OV-3 = tested on: SK-OV-3
COLO 205 = tested on: COLO 205
HOP-62 = tested on: HOP-62
SK-MEL-28 = tested on: SK-MEL-28
SN12C = tested on: SN12C
SF-295 = tested on: SF-295
NCI-H23 = tested on: NCI-H23
NCI-H460 = tested on: NCI-H460
HOP-92 = tested on: HOP-92
MOLT-4 = tested on: MOLT-4
UACC-257 = tested on: UACC-257
CAKI-1 = tested on: CAKI-1
RXF 393 = tested on: RXF 393
DMS-273 = tested on: DMS-273
A549 = tested on: A549
SF-268 = tested on: SF-268
U-251 = tested on: U-251
DLD-1 = tested on: DLD-1
RPMI-8226 = tested on: RPMI-8226
HCT-116 = tested on: HCT-116
HL-60 = tested on: HL-60
M14 = tested on: M14
SR = tested on: SR
IGROV-1 = tested on: IGROV-1
SW-620 = tested on: SW-620
K562 = tested on: K562
HCC 2998 = tested on: HCC 2998
NCI-H522 = tested on: NCI-H522
SNB-75 = tested on: SNB-75
OVCAR-8 = tested on: OVCAR-8
TK-10 = tested on: TK-10
HCT-15 = tested on: HCT-15
KM12 = tested on: KM12
OVCAR-5 = tested on: OVCAR-5
OVCAR-3 = tested on: OVCAR-3

N/N=C(\CCN1CCCC1)CC(c1ccccc1)c1c(O)c2ccccc2oc1=O (stereo not given)
GI50 (SK-MEL-2): > 100 µM (inactive)
GI50 (HOP-18): > 100 µM (inactive)
GI50 (M19-MEL): > 100 µM (inactive)
GI50 (786-0): > 100 µM (inactive)
GI50 (NCI-H226): > 100 µM (inactive)
GI50 (Malme-3M): > 100 µM (inactive)
GI50 (SNB-78): > 100 µM (inactive)
GI50 (HT-29): > 100 µM (inactive)
GI50 (CCRF-CEM): > 100 µM (inactive)
GI50 (SNB-19): > 100 µM (inactive)
GI50 (EKVX): 44.2 µM (inactive)
GI50 (OVCAR-4): > 100 µM (inactive)
GI50 (SF-539): > 100 µM (inactive)
GI50 (DMS-114): > 100 µM (inactive)
GI50 (SK-MEL-5): > 100 µM (inactive)
GI50 (UACC-62): > 100 µM (inactive)
GI50 (LOX IMVI): > 100 µM (inactive)
GI50 (ACHN): > 100 µM (inactive)
GI50 (LXFL 529): > 100 µM (inactive)
GI50 (KM-20L2): > 100 µM (inactive)
GI50 (SK-OV-3): > 100 µM (inactive)
GI50 (COLO 205): > 100 µM (inactive)
GI50 (HOP-62): > 100 µM (inactive)
GI50 (SK-MEL-28): > 100 µM (inactive)
GI50 (SN12C): > 100 µM (inactive)
GI50 (SF-295): > 100 µM (inactive)
GI50 (NCI-H23): > 100 µM (inactive)
GI50 (NCI-H460): > 100 µM (inactive)
GI50 (HOP-92): 49 µM (inactive)
GI50 (MOLT-4): > 100 µM (inactive)
GI50 (UACC-257): > 100 µM (inactive)
GI50 (CAKI-1): > 100 µM (inactive)
GI50 (RXF 393): > 100 µM (inactive)
GI50 (DMS-273): > 100 µM (inactive)
GI50 (A549): > 100 µM (inactive)
GI50 (SF-268): > 100 µM (inactive)
GI50 (U-251): > 100 µM (inactive)
GI50 (DLD-1): > 100 µM (inactive)
GI50 (RPMI-8226): > 100 µM (inactive)
GI50 (HCT-116): > 100 µM (inactive)
GI50 (HL-60): > 100 µM (inactive)
GI50 (M14): > 100 µM (inactive)
GI50 (SR): > 100 µM (inactive)
GI50 (IGROV-1): > 100 µM (inactive)
GI50 (SW-620): > 100 µM (inactive)
GI50 (K562): > 100 µM (inactive)
GI50 (HCC 2998): > 100 µM (inactive)
GI50 (NCI-H522): > 100 µM (inactive)
GI50 (SNB-75): 45.3 µM (inactive)
GI50 (OVCAR-8): > 100 µM (inactive)
GI50 (TK-10): > 100 µM (inactive)
GI50 (HCT-15): > 100 µM
GI50 (KM12): > 100 µM (inactive)
GI50 (OVCAR-5): > 100 µM (inactive)
GI50 (OVCAR-3): > 100 µM (inactive)
